Here are results for 14 compounds from patent US6413935B1, “Induction of immune response against desired determinants” (priority 1993, dated 2002).

Like-named read-outs stand apart in the source and are kept apart here. Non-standard residues stand in square brackets, D forms with d. Residues, ends and D or L forms follow the SMILES beside them. Cha = N[C@@H](CC1CCCCC1)C(=O)O

The test system of one test is DR7. To be noted: read-out: PADRE Class II Binding Affinities DR7.
The next test deals with DR5. Particulars: read-out: PADRE Class II Binding Affinities DR5.
The next test has as its system DQ3.1. To be noted: for IC50: read-out: PADRE Class II Binding Affinities, Table VIII A.

For the compound `CC(C)C[C@H](NC(=O)[C@@H](NC(=O)[C@H](C)NC(=O)[C@@H](NC(=O)[C@H](C)NC(=O)[C@H](C)NC(=O)[C@H](CC1CCCCC1)NC(=O)[C@H](C)NC(=O)[C@@H](C)N)C(C)C)[C@@H](C)O)C(=O)N[C@@H](CCCCN)C(=O)N[C@@H](C)C(=O)N[C@@H](C)C(=O)N[C@H](C)C(N)=O` [Peptide 906.21] (H-[dA]A[Cha]AAVATLKAA[dA]-NH2; N-terminus and C-terminus assumed), the IC50 in the test with DR7 (Table VIII A) is 42.4 nM; with DR5 (Table VIII A), 3.2 nM.

On to `CC(C)C[C@H](NC(=O)[C@@H](NC(=O)[C@H](C)NC(=O)[C@H](Cc1ccccc1)NC(=O)[C@H](C)NC(=O)[C@H](C)NC(=O)[C@H](CC1CCCCC1)NC(=O)[C@H](C)NC(=O)[C@@H](C)N)[C@@H](C)O)C(=O)N[C@@H](CCCCN)C(=O)N[C@@H](C)C(=O)N[C@@H](C)C(=O)N[C@H](C)C(N)=O` [Peptide 906.22] (H-[dA]A[Cha]AAFATLKAA[dA]-NH2; N-terminus and C-terminus assumed), for which the figures for the IC50 with DR7, with DQ3.1 and in the test with DR5 were 59.4 nM, 1880 nM and 3.4 nM, respectively.

`CC(C)C[C@H](NC(=O)[C@@H](NC(=O)[C@H](CCCCN)NC(=O)[C@H](C)NC(=O)[C@H](C)NC(=O)[C@H](C)NC(=O)[C@H](CC1CCCCC1)NC(=O)[C@H](C)NC(=O)[C@@H](C)N)[C@@H](C)O)C(=O)N[C@@H](CCCCN)C(=O)N[C@@H](C)C(=O)N[C@@H](C)C(=O)N[C@H](C)C(N)=O` [Peptide 906.23]: the figures for the IC50 with DR7, in the test on DQ3.1 and in the test with DR5 were 29.6 nM, 26.1 nM and 2.2 nM, respectively.

`CC(C)C[C@H](NC(=O)[C@@H](NC(=O)[C@H](CCC(N)=O)NC(=O)[C@H](C)NC(=O)[C@H](C)NC(=O)[C@H](C)NC(=O)[C@H](CC1CCCCC1)NC(=O)[C@H](C)NC(=O)[C@@H](C)N)[C@@H](C)O)C(=O)N[C@@H](CCCCN)C(=O)N[C@@H](C)C(=O)N[C@@H](C)C(=O)N[C@H](C)C(N)=O` [Peptide 906.25]: the IC50 in the test on DQ3.1 was found to be 42.5 nM; in the test with DR5 (Table VIII A), 3 nM.

In the case of `C[C@H](NC(=O)[C@H](C)NC(=O)[C@H](C)NC(=O)[C@H](CC1CCCCC1)NC(=O)[C@H](C)NC(=O)[C@@H](C)N)C(=O)N[C@@H](C)C(=O)N[C@H](C(=O)N[C@@H](CCCCN)C(=O)N[C@@H](CCCCN)C(=O)N[C@@H](C)C(=O)N[C@@H](C)C(=O)N[C@H](C)C(N)=O)[C@@H](C)O` [Peptide 906.29] (H-[dA]A[Cha]AAAATKKAA[dA]-NH2; N-terminus and C-terminus assumed), the IC50 was determined as 283 nM in the test on DQ3.1 and 7.7 nM in the test on DR5 (Table VIII A). The “Increase in DQ3.1 binding reactivity” value in the test with DQ3.1 (relative to parent 760.57) is on record as “no reactivity was gained”.

In the case of `CC(C)C[C@H](NC(=O)[C@@H](NC(=O)[C@H](C)NC(=O)[C@H](C)NC(=O)[C@H](C)NC(=O)[C@H](C)NC(=O)[C@H](CC1CCCCC1)NC(=O)[C@H](C)NC(=O)[C@@H](C)N)[C@@H](C)O)C(=O)N[C@@H](CCC(=O)O)C(=O)N[C@@H](C)C(=O)N[C@@H](C)C(=O)N[C@H](C)C(N)=O` [Peptide 906.35], the IC50 with DQ3.1 worked out at 39.5 nM; with DR5 (Table VIII A) it was 10.5 nM.

In the case of `CC(C)C[C@H](NC(=O)[C@@H](NC(=O)[C@H](C)NC(=O)[C@H](C)NC(=O)[C@H](C)NC(=O)[C@H](C)NC(=O)[C@H](CC1CCCCC1)NC(=O)[C@H](C)NC(=O)[C@@H](C)N)[C@@H](C)O)C(=O)N[C@@H](CCC(N)=O)C(=O)N[C@@H](C)C(=O)N[C@@H](C)C(=O)N[C@H](C)C(N)=O` [Peptide 906.36], the values for the IC50 with DQ3.1 and in the test on DR5 (Table VIII A) were 23.7 nM and 8.3 nM, respectively.

`CC(C)C[C@H](NC(=O)[C@@H](NC(=O)[C@H](C)NC(=O)[C@H](C)NC(=O)[C@H](C)NC(=O)[C@H](C)NC(=O)[C@H](CC1CCCCC1)NC(=O)[C@H](C)NC(=O)[C@@H](C)N)[C@@H](C)O)C(=O)N[C@@H](Cc1ccccc1)C(=O)N[C@@H](C)C(=O)N[C@@H](C)C(=O)N[C@H](C)C(N)=O` [Peptide 906.38]: the IC50 in the test on DR7 (Table VIII A) is 56.8 nM; in the test on DR5 (Table VIII A) it was 19.2 nM.

Consider `CC(C)C[C@H](NC(=O)[C@@H](NC(=O)[C@H](C)NC(=O)[C@H](C)NC(=O)[C@H](C)NC(=O)[C@H](C)NC(=O)[C@H](CC1CCCCC1)NC(=O)[C@H](C)NC(=O)[C@@H](C)N)[C@@H](C)O)C(=O)N[C@@H](CCCCN)C(=O)N[C@@H](CCC(=O)O)C(=O)N[C@@H](C)C(=O)N[C@H](C)C(N)=O` [Peptide 906.41] (H-[dA]A[Cha]AAAATLKEA[dA]-NH2; N-terminus and C-terminus assumed), for which the IC50 with DR7 (Table VIII A) was 252 nM.

With `CC(C)C[C@H](NC(=O)[C@@H](NC(=O)[C@H](C)NC(=O)[C@H](C)NC(=O)[C@H](C)NC(=O)[C@H](C)NC(=O)[C@H](CC1CCCCC1)NC(=O)[C@H](C)NC(=O)[C@@H](C)N)[C@@H](C)O)C(=O)N[C@@H](CCCCN)C(=O)N[C@@H](CCC(N)=O)C(=O)N[C@@H](C)C(=O)N[C@H](C)C(N)=O` [Peptide 906.42] (H-[dA]A[Cha]AAAATLKQA[dA]-NH2; N-terminus and C-terminus assumed), the IC50 was 484 nM with DQ3.1 and 29.4 nM in the test with DR5 (Table VIII A).

On to `CC(C)C[C@H](NC(=O)[C@@H](NC(=O)[C@H](C)NC(=O)[C@H](C)NC(=O)[C@H](C)NC(=O)[C@H](C)NC(=O)[C@H](CC1CCCCC1)NC(=O)[C@H](C)NC(=O)[C@@H](C)N)[C@@H](C)O)C(=O)N[C@@H](CCCCN)C(=O)N[C@@H](Cc1ccccc1)C(=O)N[C@@H](C)C(=O)N[C@H](C)C(N)=O` [Peptide 906.44] (H-[dA]A[Cha]AAAATLKFA[dA]-NH2; N-terminus and C-terminus assumed), for which the IC50 in the test with DR7 (Table VIII A) was 25 nM; with DR5 (Table VIII A), 104 nM.

As to `CC(C)C[C@H](NC(=O)[C@@H](NC(=O)[C@H](C)NC(=O)[C@H](C)NC(=O)[C@H](C)NC(=O)[C@H](C)NC(=O)[C@H](CC1CCCCC1)NC(=O)[C@H](C)NC(=O)[C@@H](C)N)[C@@H](C)O)C(=O)N[C@@H](CCCCN)C(=O)N[C@@H](C)C(=O)N[C@@H](CCC(=O)O)C(=O)N[C@H](C)C(N)=O` [Peptide 906.47] (H-[dA]A[Cha]AAAATLKAE[dA]-NH2; N-terminus and C-terminus assumed), the IC50 was determined as 60.2 nM in the test with DQ3.1 and 25.5 nM in the test with DR5 (Table VIII A).

Regarding `CC(C)C[C@H](NC(=O)[C@@H](NC(=O)[C@H](CC(N)=O)NC(=O)[C@H](C)NC(=O)[C@H](Cc1c[nH]c2ccccc12)NC(=O)[C@@H](NC(=O)[C@H](CC1CCCCC1)NC(=O)[C@H](CCCCN)NC(=O)[C@@H](C)N)C(C)C)[C@@H](C)O)C(=O)N[C@@H](CCCCN)C(=O)N[C@@H](C)C(=O)N[C@@H](C)C(=O)N[C@H](C)C(N)=O` [Peptide 965.031], the IC50 in the test on DR7 (Table IX) worked out at 208 nM; in the test with DR5 (Table IX), 8.3 nM; in the test on DR5 (Table IX, listed as 965.032) it was 2.9 nM.

With `CC(C)C[C@H](NC(=O)[C@@H](NC(=O)[C@H](Cc1c[nH]cn1)NC(=O)[C@H](C)NC(=O)[C@H](CCCCN)NC(=O)[C@@H](NC(=O)[C@H](CC1CCCCC1)NC(=O)[C@H](CCCCN)NC(=O)[C@@H](C)N)C(C)C)[C@@H](C)O)C(=O)N[C@@H](CCCCN)C(=O)N[C@@H](C)C(=O)N[C@@H](C)C(=O)N[C@H](C)C(N)=O` [Peptide 965.071], the IC50 was found to be 556 nM with DR7 (Table IX, listed as 965.072); 10.5 nM in the test with DR5 (Table IX); 4.8 nM in the test with DR5 (Table IX, listed as 965.072).
